In patent US8748426B2, “Inhibitors of diacylglycerol acyl transferase” (Piramal Enterprises Limited, priority 2009, dated 2014):

Molecular target: T1, hDGAT1 (Homo sapiens, UniProt O75907)
T1 sequence (O75907 1-488): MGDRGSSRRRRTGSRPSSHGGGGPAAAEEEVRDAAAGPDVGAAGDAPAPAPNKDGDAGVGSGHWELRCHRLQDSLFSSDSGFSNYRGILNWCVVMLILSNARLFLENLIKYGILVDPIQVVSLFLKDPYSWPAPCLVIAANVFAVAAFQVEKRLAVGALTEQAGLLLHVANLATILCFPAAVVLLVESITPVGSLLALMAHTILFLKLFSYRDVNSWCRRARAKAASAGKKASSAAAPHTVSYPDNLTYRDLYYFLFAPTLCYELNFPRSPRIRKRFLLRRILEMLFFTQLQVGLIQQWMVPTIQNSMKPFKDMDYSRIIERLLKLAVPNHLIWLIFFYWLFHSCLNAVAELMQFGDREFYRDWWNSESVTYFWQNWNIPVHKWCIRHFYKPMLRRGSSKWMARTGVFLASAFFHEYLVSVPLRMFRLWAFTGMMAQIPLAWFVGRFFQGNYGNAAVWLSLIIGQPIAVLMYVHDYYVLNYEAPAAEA
Test: In-vitro DGAT1 assay (14C oleoyl CoA, hDGAT1 microsomes from Sf9 cells)
Settings: for inhibition at 1 µM: read-out: % Inhibition of hDGAT1; for % Inhibition of hDGAT1: at 1 μM

| Compound | inhibition at 1 µM | % Inhibition of hDGAT1 |
| --- | --- | --- |
| CC(C)[C@@H](C(=O)O)N1Cc2ccc(-c3ccc(NC(=O)c4ccc(-c5cnco5)cc4)cc3)cc2C1=O [Example 622, (S)-3-Methyl-2-(6-(4-(4-(oxazol-5-yl)benzamido)phenyl)-1-oxoisoindolin-2-yl)butanoic acid] | > 50% |  |
| CC(C)[C@@H](C(=O)O)N1Cc2ccc(-c3ccc(NC(=O)c4cc(-c5ccc(Cl)cc5)no4)cc3)cc2C1=O [Example 618, (S)-2-(6-(4-(3-(4-Chlorophenyl)isoxazole-5-carboxamido)phenyl)-1-oxoisoindolin-2-yl)-3-methylbutanoic acid] | > 50% |  |
| COc1ccc(OC)c(C(=O)Nc2ccc(-c3ccc4c(c3)C(=O)N([C@H](C(=O)O)C(C)C)C4)cc2)c1 [Example 180, (S)-2-(6-(4-(3,6-Dimethoxybenzamido)phenyl)-1-oxoisoindolin-2-yl)-3-methyl butanoic acid] | > 50% |  |
| (S)-2-(5-(4-(3-(2-Fluorophenyl)thioureido)phenyl)-1-oxoisoindolin-2-yl)-3-methylbutanoic acid [Example 257] |  | + (10-50% Inhibition) |
| CC(C)[C@@H](C(=O)O)N1Cc2cc(-c3ccc(NC(=O)Nc4ccc(F)cc4F)cc3)ccc2C1=O [Example 237, (S)-2-(5-(4-(3-(2,4-Difluorophenyl)ureido)phenyl)-1-oxoisoindolin-2-yl)-3-methylbutanoic acid] | > 50% |  |
| COc1cccc(NC(=O)Nc2ccc(-c3ccc4c(c3)CN([C@H](C(=O)O)C(C)C)C4=O)cc2)c1 [Example 251, (S)-2-(5-(4-(3-(3-Methoxyphenyl)ureido)phenyl)-1-oxoisoindolin-2-yl)-3-methylbutanoic acid] | > 50% |  |
| CC(C)[C@@H](C(=O)O)N1Cc2ccc(-c3ccc(NC(=O)c4nc(-c5ccccc5)cs4)cc3)cc2C1=O [Example 624, (S)-3-Methyl-2-(1-oxo-6-(4-(4-phenylthiazole-2-carboxamido)phenyl)isoindolin-2-yl)butanoic acid] | > 50% |  |
| CC(C)[C@@H](C(=O)O)N1Cc2ccc(-c3ccc(NC(=O)c4ccc(OC(F)(F)F)cc4)nn3)cc2C1=O [Example 502, (S)-3-Methyl-2-(1-oxo-6-(6-(4-(trifluoromethoxy)benzamido)pyridazin-3-yl)isoindolin-2-yl)butanoic acid] | > 50% |  |
| CCOc1cc(OCC)cc(C(=O)Nc2ccc(-c3ccc4c(c3)C(=O)N([C@H](C(=O)O)C(C)C)C4)cc2)c1 [Example 146, (S)-2-(6-(4-(3,5-Diethoxybenzamido)phenyl)-1-oxoisoindolin-2-yl)-3-methyl butanoic acid] | > 50% |  |
| CC(C)[C@@H](C(=O)O)N1Cc2ccc(-c3ccc(NC(=O)c4ncc(-c5ccccc5)o4)cc3)cc2C1=O [Example 614, (S)-3-Methyl-2-(1-oxo-6-(4-(5-phenyloxazole-2-carboxamido)phenyl)isoindolin-2-yl)butanoic acid] | > 50% |  |
| CC(C)[C@@H](C(=O)O)N1Cc2cc(-c3ccc(NS(=O)(=O)c4cccc(Cl)c4)cc3)ccc2C1=O [Example 295, (S)-2-(5-(4-(3-Chlorophenylsulfonamido)phenyl)-1-oxoisoindolin-2-yl)-3-methyl butanoic acid] | 10 to 50% |  |
| CC(C)[C@@H](C(=O)O)N1Cc2ccc(-c3ccc(NC(=O)c4ccc(-c5nccs5)cc4)cc3)cc2C1=O [Example 647, (S)-3-Methyl-2-(1-oxo-6-(4-(4-(thiazol-2-yl)benzamido)phenyl)isoindolin-2-yl)butanoic acid] | > 50% |  |
| COc1cc(C(=O)Nc2ccc(-c3ccc4c(c3)C(=O)N([C@H](C(=O)O)C(C)C)C4)cc2)cc(OC)c1OC [Example 144, (S)-3-Methyl-2-(1-oxo-6-(4-(3,4,5-trimethoxybenzamido)phenyl)isoindolin-2-yl)butanoic acid] | > 50% |  |
| CC(C)[C@@H](C(=O)O)N1Cc2ccc(-c3ccc(NC(=O)c4ccc(C(C)(C)C)cc4)cc3Cl)cc2C1=O [Example 480, (S)-2-(6-(4-(4-tert-Butylbenzamido)-2-chlorophenyl)-1-oxoisoindolin-2-yl)-3-methylbutanoic acid] | > 50% |  |
| CC(C)[C@@H](C(=O)O)N1Cc2ccc(-c3ccc(NC(=O)Nc4ccccc4F)cc3)cc2C1=O [Example 12, (S)-2-(6-(4-(3-(2-Fluorophenyl)ureido)phenyl)-1-oxoisoindolin-2-yl)-3-methyl butanoic acid] | 10 to 50% |  |
| O=C(Nc1ccc(-c2ccc3c(c2)C(=O)N([C@H]2CC[C@H](C(=O)O)CC2)C3)cc1)c1cccc(Cl)c1 [Example 559, (1r,4r)-4-(6-(4-(3-Chlorobenzamido)phenyl)-1-oxoisoindolin-2-yl)cyclohexane carboxylic acid] |  | ++ (>50% Inhibition) |
| CC(C)[C@@H](C(=O)O)N1Cc2ccc(-c3ccc(NC(=O)Nc4ccccc4Cl)cc3C(F)(F)F)cc2C1=O [Example 416, (S)-2-(6-(4-(3-(2-Chlorophenyl)ureido)-2-(trifluoromethyl)phenyl)-1-oxoisoindolin-2-yl)-3-methylbutanoic acid] | 10 to 50% |  |
| COc1ccc(S(=O)(=O)Nc2ccc(-c3ccc4c(c3)CN([C@H](C(=O)O)C(C)C)C4=O)cc2)cc1 [Example 297, (S)-2-(5-(4-(4-Methoxyphenylsulfonamido)phenyl)-1-oxoisoindolin-2-yl)-3-methylbutanoic acid] | 10 to 50% |  |
| O=C(O)CCCN1Cc2ccc(-c3ccc(NC(=O)Nc4cccc(C(F)(F)F)c4)cc3)cc2C1=O [Example 349, 4-(1-Oxo-6-(4-(3-(3-(trifluoromethyl)phenyl)ureido)phenyl)isoindolin-2-yl)butanoic acid] | 10 to 50% |  |
| CC(C)[C@@H](C(=O)O)N1Cc2ccc(-c3ccc(NC(=O)c4cnc5ccccc5c4)cc3)cc2C1=O [Example 651] |  | + (10-50% Inhibition) |

Other lines, results leading:

| inhibition at 1 µM | % Inhibition of hDGAT1 | Compound |
| --- | --- | --- |
| > 50% |  | CC(C)[C@@H](C(=O)O)N1Cc2ccc(-c3ccc(NC(=O)c4ccc(C(F)(F)F)cc4F)cc3)cc2C1=O [Example 192, (S)-2-(6-(4-(2-Fluoro-4-(trifluoromethyl)benzamido)phenyl)-1-oxoisoindolin-2-yl)-3-methylbutanoic acid] |
| 10 to 50% |  | CC(C)[C@@H](C(=O)O)N1Cc2cc(-c3ccc(NC(=O)c4cccc(Cl)c4)cc3)ccc2C1=O [Example 315, (S)-2-(5-(4-(3-Chlorobenzamido)phenyl)-1-oxoisoindolin-2-yl)-3-methylbutanoic acid] |
| 10 to 50% |  | CC(C)[C@@H](C(=O)O)N1Cc2cc(-c3ccc(NC(=S)Nc4ccccc4C(F)(F)F)cc3)ccc2C1=O [Example 271, (S)-3-Methyl-2-(1-oxo-5-(4-(3-(2-(trifluoromethyl)phenyl)thioureido)phenyl)isoindolin-2-yl)butanoic acid] |
| > 50% |  | CC(C)[C@@H](C(=O)O)N1Cc2ccc(-c3ccc(NC(=O)c4nc(-c5ccccc5)oc4C(F)(F)F)cn3)cc2C1=O [Example 657, (S)-3-Methyl-2-(1-oxo-6-(5-(2-phenyl-5-(trifluoromethyl)oxazole-4-carboxamido)pyridin-2-yl)isoindolin-2-yl)butanoic acid] |
| > 50% |  | CC(C)[C@@H](C(=O)O)N1Cc2ccc(-c3ccc(NC(=O)c4ccc(F)cc4)cc3)cc2C1=O [Example 100, (S)-2-(6-(4-(4-Fluorobenzamido)phenyl)-1-oxoisoindolin-2-yl)-3-methylbutanoic acid] |
| > 50% |  | CC(C)[C@@H](C(=O)O)N1Cc2ccc(-c3ccc(NC(=O)Nc4ccc5c(c4)CCC5)c(F)c3)cc2C1=O [Example 438, (S)-2-(6-(4-(3-(2,3-Dihydro-1H-inden-5-yl)ureido)-3-fluorophenyl)-1-oxoisoindolin-2-yl)-3-methylbutanoic acid] |
| > 50% |  | CC(C)[C@@H](C(=O)O)N1Cc2ccc(-c3ccc(NC(=O)c4ccc(F)c(F)c4)cc3)cc2C1=O [Example 140, (S)-2-(6-(4-(3,4-Difluorobenzamido)phenyl)-1-oxoisoindolin-2-yl)-3-methyl butanoic acid] |
| 10 to 50% |  | COC[C@@H](C(=O)O)N1Cc2cc(-c3ccc(NC(=O)Nc4cccc(C(F)(F)F)c4)cc3)ccc2C1=O [Example 385, (S)-3-Methoxy-2-(1-oxo-5-(4-(3-(3-(trifluoromethyl)phenyl)ureido)phenyl)isoindolin-2-yl)propanoic acid] |
| 10 to 50% |  | CC(C)[C@@H](C(=O)O)N1Cc2cc(-c3ccc(NS(=O)(=O)Cc4ccccc4)cc3)ccc2C1=O [Example 301, (S)-3-Methyl-2-(1-oxo-5-(4-(phenylmethylsulfonamido)phenyl)isoindolin-2-yl)butanoic acid] |
| > 50% |  | CCCCCc1ccc(C(=O)Nc2ccc(-c3ccc4c(c3)C(=O)N([C@H](C(=O)O)C(C)C)C4)nn2)cc1 [Example 500, (S)-3-Methyl-2-(1-oxo-6-(6-(4-pentylbenzamido)pyridazin-3-yl)isoindolin-2-yl)butanoic acid] |
| > 50% |  | CC(C)[C@@H](C(=O)O)N1Cc2ccc(-c3ccc(NC(=O)c4cc(-c5ccc(C(F)(F)F)cc5)no4)cc3)cc2C1=O [Example 620, (S)-3-Methyl-2-(1-oxo-6-(4-(3-(4-(trifluoromethyl)phenyl)isoxazole-5-carboxamido)phenyl)isoindolin-2-yl)butanoic acid] |
